# Reference: PMC11058299, “Synthesis, molecular docking evaluation for LOX and COX-2 inhibition and determination of in-vivo analgesic potentials of aurone derivatives” (Heliyon, 2024)
# Where two headings read alike, the source gives them in different places.
# Tests used:
# [1] = tested on: heat induced tail flicking latency; assay: Tail immersion test; format: in vivo; conditions: mice
# Protocol: Group I: Control, Group II-XV: WE-1 to WE-7 (sample compounds) at dose of 10 mg/kg and 20 mg/kg and Group XVI: Standard. The control (Group I) was given normal saline. Group II-XV received 10 mg/kg and 20 mg/kg of test sample (WE-1 to WE-7).
# (§1) The cut-off time was set at 25 s, and the time taken for the mice to flick their tails out of the water was recorded at 30, 60, 90, and 120-min intervals. An increase in the time of tail immersion was compared to the control group to determine the analgesic effect of the tested drugs. The percentage of inhibition was calculated at the time interval showing the highest effect.
# [2] = tested on: opioid receptors (tail flicking latency); assay: Assessment of opioid mechanism via tail immersion test with Naloxone; format: in vivo; conditions: mice; for Latency response 30 min: control 3.14 ± 0.31; for Latency response 60 min: control 3.17 ± 0.41; for Latency response 120 min: control 3.20 ± 0.29; for Latency response 90 min: control 3.31 ± 0.44
# Protocol: as §1
# To verify the involvement of the opioid mechanism, following the approach outlined in the published study. […] These derivatives were assessed for their potential opioid activity within the control, sample compounds and standard groups using the tail immersion test.
# [3] = molecular target: T1, 5-LOX (Homo sapiens, UniProt P09917); assay: LOX inhibitory assay; format: biochemical
# T1 sequence (P09917 1-674): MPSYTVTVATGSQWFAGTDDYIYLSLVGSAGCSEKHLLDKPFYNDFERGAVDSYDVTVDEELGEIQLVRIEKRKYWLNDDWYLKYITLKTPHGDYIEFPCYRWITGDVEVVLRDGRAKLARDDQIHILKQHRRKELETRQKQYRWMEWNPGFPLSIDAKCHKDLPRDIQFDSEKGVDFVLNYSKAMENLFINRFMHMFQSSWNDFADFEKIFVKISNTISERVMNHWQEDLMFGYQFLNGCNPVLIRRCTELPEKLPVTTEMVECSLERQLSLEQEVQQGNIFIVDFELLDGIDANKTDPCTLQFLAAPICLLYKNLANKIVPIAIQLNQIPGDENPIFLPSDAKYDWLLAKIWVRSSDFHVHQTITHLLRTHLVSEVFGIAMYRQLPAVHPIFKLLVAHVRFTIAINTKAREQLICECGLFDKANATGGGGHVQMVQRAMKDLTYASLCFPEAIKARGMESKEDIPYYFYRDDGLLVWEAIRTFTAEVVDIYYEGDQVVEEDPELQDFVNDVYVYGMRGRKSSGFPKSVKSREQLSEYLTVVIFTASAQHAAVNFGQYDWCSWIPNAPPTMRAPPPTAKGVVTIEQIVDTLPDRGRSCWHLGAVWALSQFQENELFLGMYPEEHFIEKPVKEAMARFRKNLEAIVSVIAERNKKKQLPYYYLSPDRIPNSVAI
# Protocol: The assay was performed according to previously reported procedure. […] Enzyme 5-LOX and DCFDA were incubated for 5 min. After the addition of the test compound, it was further incubated for 10 min. By the addition of substrate arachadonic acid and ATP, the reaction was initiated.
# [4] = molecular target: T2, COX-2 enzyme (Homo sapiens, UniProt P35354); assay: COX-2 inhibitory assay; format: biochemical
# T2 construct: purchased Sigma Aldrich
# T2 sequence (P35354 18-604): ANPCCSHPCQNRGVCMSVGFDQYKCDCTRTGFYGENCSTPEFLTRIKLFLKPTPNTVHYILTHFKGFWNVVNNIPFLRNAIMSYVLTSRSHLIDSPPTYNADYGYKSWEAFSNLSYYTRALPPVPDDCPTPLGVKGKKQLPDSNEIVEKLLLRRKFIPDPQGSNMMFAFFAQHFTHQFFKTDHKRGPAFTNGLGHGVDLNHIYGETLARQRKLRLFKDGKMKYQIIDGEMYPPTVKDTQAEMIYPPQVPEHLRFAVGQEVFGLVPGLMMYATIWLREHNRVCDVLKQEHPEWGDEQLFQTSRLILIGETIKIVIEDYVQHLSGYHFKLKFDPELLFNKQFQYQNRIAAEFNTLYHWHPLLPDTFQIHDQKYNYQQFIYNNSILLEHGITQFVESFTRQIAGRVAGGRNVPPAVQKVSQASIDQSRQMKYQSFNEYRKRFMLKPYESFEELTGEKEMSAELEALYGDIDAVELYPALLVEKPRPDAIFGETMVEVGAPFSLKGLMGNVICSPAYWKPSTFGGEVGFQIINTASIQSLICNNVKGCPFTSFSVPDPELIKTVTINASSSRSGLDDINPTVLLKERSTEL
# Protocol: COX-2 inhibition was measured spectrophotometrically at 550 nm after the formation of oxidized form of tetramethlenephenylenediamine (TMPD). This assay was conducted according to previously reported procedure. […] The reaction contained 10 μL COX-2 enzymes (100 μM in diluted in DMSO), 10 μL haem of 2.2 mM diluted in DMSO, tris buffers (pH. 8, 100 μl) and drug samples according to the above stated procedure. The reaction was started by the addition of freshly prepared TMPD and methanolic arachidonic acid (AA). Celecoxib is used as a reference drug in this assay. After 5 min of incubation at 25–28C, the absorbance was measured at 550 nm and inhibition was calculated.
# [5] = tested on: acetic acid induced writhing; assay: Acetic acid induced writhing test; format: in vivo; conditions: mice
# Protocol: The animals were divided into various groups I-XVI consisting of 8 experimental animals for control, sample compounds (WE-1 to WE-7) and standard. Group I: Control, Group II-XV: WE-1 to WE-7 (sample compounds) at dose of 10 mg/kg and 20 mg/kg and Group XVI: Standard. The control (Group I) was given normal saline. Group II-XV received 10 mg/kg and 20 mg/kg of test sample (WE-1 to WE-7). […] The writhing test, following a previously established method, was conducted to assess the analgesic potential of the aurone derivatives. The mice were orally administered samples compounds (WE-1 to WE-7)and standard (Diclofenac sodium 10 mg/kg) 1 h before intraperitoneal administration 10 ml/kg of 1 % acetic acid. Five minutes after the acetic acid administration, the numbers of writhing episodes were counted for 10 min, and the percentage of inhibition was subsequently calculated.
# [6] = tested on: formalin induced paw licking; assay: Formalin induced paw licking test; format: in vivo; conditions: late phase, mice
# Protocol: The animals were divided into various groups I-XVI consisting of 8 experimental animals for control, sample compounds (WE-1 to WE-7) and standard. Group I: Control, Group II-XV: WE-1 to WE-7 (sample compounds) at dose of 10 mg/kg and 20 mg/kg and Group XVI: Standard. The control (Group I) was given normal saline. Group II-XV received 10 mg/kg and 20 mg/kg of test sample (WE-1 to WE-7). […] The acute peripheral and centrally mediated analgesic activity of aurone derivatives was evaluated using the formalin-induced pain method, as described. Samples compounds (WE-1 to WE-7) and a standard (Indomethacin 10 mg) were orally administered 30 min prior to 20 μl of 1 % formalin injection (prepared in 0.9 % saline) in right hind paw of the mice and immediately placed in a clear box to observe the animal's reaction. Paw licking or biting within 0–5 min indicated Phase 1, while animal reactions observed between 15 and 30 min indicated Phase 2. The number of paw licking or biting events was compared to the control group, and the percentage of inhibition was calculated.
# [7] = Table 2, read-out: LOX (IC50 μM)
# [8] = as repeated in Table 4, read-out: Human LOX (IC50 μM)
SMILES,Latency response 30 min ([2]; 10 mg/kg + Naloxone 2 mg/kg),Latency response 60 min ([2]; 10 mg/kg + Naloxone 2 mg/kg),Latency response 120 min ([2]; 10 mg/kg + Naloxone 2 mg/kg),Latency response 90 min ([2]; 10 mg/kg + Naloxone 2 mg/kg),"IC50 [3, 7]","IC50 [3, 8]",IC50 ([4]; Table 2),IC50 ([4]; as repeated in Table 4),Latency response 30 min ([2]; 20 mg/kg + Naloxone 2 mg/kg),Latency response 60 min ([2]; 20 mg/kg + Naloxone 2 mg/kg),Latency response 120 min ([2]; 20 mg/kg + Naloxone 2 mg/kg),Latency response 90 min ([2]; 20 mg/kg + Naloxone 2 mg/kg),"percentage inhibition of paw licking, Phase II ([6]; 20 mg/kg oral)",other results
"CN1CC[C@]23c4c5ccc(O)c4O[C@H]2[C@@H](O)C=C[C@H]3[C@H]1C5 [Morphine, reference compound]",,,,,,,,,,,,,,"percentage inhibition of pain, tail immersion ([1]; 2 mg/kg oral): 85.42%"
"COc1cccc(C2(O)CCCCC2CN(C)C)c1 (stereo not shown) [Tramadol, reference compound]",3.53 ± 0.44,4.60 ± 0.59,3.48 ± 0.44,3.70 ± 0.48,,,,,,,,,,"tail flicking latency ([1]; 10 mg/kg, after 90 min, without Naloxone): 17.74 ± 1.33"
O=C1C(=Cc2ccccc2)Oc2ccccc21 [WE-1],,,,,1.45 µM,1.45 µM,1.27 µM,1.27 µM,,,,,,
O=C1C(=Cc2ccc(Cl)cc2)Oc2ccccc21 [WE-2],3.61 ± 0.41,4.11 ± 0.40,3.19 ± 0.32,4.03 ± 0.41,0.86 µM,0.86 µM,0.82 µM,0.82 µM,3.70 ± 0.39,4.30 ± 0.51,3.80 ± 0.55,4.59 ± 0.60,over 60%,percent analgesic effect (inhibition of writhing) ([5]; 10 mg/kg oral): 63.44%; percent analgesic effect (inhibition of writhing) ([5]; 20 mg/kg oral): 64.94%
COc1ccc(C=C2Oc3ccccc3C2=O)cc1 [WE-3],3.66 ± 0.41,4.60 ± 0.49,4.01 ± 0.61,4.71 ± 0.66,0.52 µM,0.52 µM,0.47 µM,0.47 µM,3.35 ± 0.49,4.76 ± 0.51,4.15 ± 0.56,5.14 ± 0.61,over 60%,"percentage inhibition of pain, tail immersion ([1]; 20 mg/kg oral, at interval of highest effect): 71.36%"
O=C(O)c1ccc(C=C2Oc3ccccc3C2=O)cc1 [WE-5],,,,,1.12 µM,1.12 µM,1.21 µM,1.21 µM,,,,,,
O=Cc1ccc(C=C2Oc3ccccc3C2=O)cc1 [WE-6],,,,,1.17 µM,1.17 µM,1.13 µM,1.13 µM,,,,,,
O=C1C(=Cc2ccc(F)cc2)Oc2ccccc21 [WE-7],3.48 ± 0.46,4.11 ± 0.48,3.40 ± 0.60,4.11 ± 0.40,0.74 µM,0.74 µM,0.63 µM,0.63 µM,3.50 ± 0.67,4.35 ± 0.61,3.51 ± 0.66,5.01 ± 0.60,over 60%,percent analgesic effect (inhibition of writhing) ([5]; 20 mg/kg oral): more than 60%
"O=C(O)Cc1ccccc1Nc1c(Cl)cccc1Cl [diclofenac sodium, Diclofenac Sodium, reference compound]",,,,,,,,,,,,,,"percent analgesic effect (inhibition of writhing) ([5]; 10 mg/kg oral): 84.90%; number of writhing ([5]; 10 mg/kg oral, mean ± SEM, control 61.22 ± 3.90): 9.24 ± 1.51"
"COc1ccc2c(c1)c(CC(=O)O)c(C)n2C(=O)c1ccc(Cl)cc1 [indomethacin, Indomethacin, reference compound]",,,,,,,,,,,,,,"percentage inhibition of paw licking, Phase II ([6]; 10 mg/kg oral): 81.85%"
